These results are taken from US10023559B2 (Hoffmann-La Roche Inc., priority 2014, dated 2018).

The target of assay [1] is rat TAAR1 (Rattus norvegicus (Rat), UniProt Q923Y9). As to the kind of experiment: Radioligand binding assay on rat TAAR1. The following applies: for Ki: read-out: Ki(μM) rat, rat TAAR1, HEK-293 membranes, second value of cell pair mouse/rat.
The target in assay [2] is mouse TAAR1 (Mus musculus (Mouse), UniProt Q923Y8). As to the kind of experiment: Radioligand binding assay on mouse TAAR1.
Sequence of mouse TAAR1 (Q923Y8 whole entry): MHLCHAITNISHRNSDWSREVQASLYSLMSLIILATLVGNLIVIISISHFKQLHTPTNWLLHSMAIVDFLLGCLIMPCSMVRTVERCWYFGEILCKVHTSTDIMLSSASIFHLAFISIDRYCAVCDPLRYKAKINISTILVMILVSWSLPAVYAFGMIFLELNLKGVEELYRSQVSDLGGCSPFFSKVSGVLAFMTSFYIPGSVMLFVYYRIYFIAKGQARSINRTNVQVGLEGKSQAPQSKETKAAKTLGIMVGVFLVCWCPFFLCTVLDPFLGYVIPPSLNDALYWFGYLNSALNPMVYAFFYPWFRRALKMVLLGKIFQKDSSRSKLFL
Description: Membrane Preparation and Radioligand Binding.
HEK-293 cells stably expressing mouse TAAR1 were maintained at 37° C. and 5% CO2 in DMEM high glucose medium, containing fetal calf serum (10%, heat inactivated for 30 min at 56° C.), penicillin/streptomycin (1%), and 375 μg/ml geneticin (Gibco). Cells were released from culture flasks using trypsin/EDTA, harvested, washed twice with ice-cold PBS (without Ca^2+ and Mg^2+), pelleted at 1,000 rpm for 5 min at 4° C., frozen and stored at −80° C. Frozen pellets were suspended in 20 ml HEPES-NaOH (20 mM, pH 7.4) containing 10 mM EDTA and homogenized with a Polytron (PT 6000, Kinematica) at 14,000 rpm for 20 s. The homogenate was centrifuged at 48,000×g for 30 min at 4° C. Subsequently, the supernatant was removed and discarded, and the pellet resuspended in 20 ml HEPES-NaOH (20 mM, pH 7.4) containing 0.1 mM EDTA using the Polytron (20 s at 14,000 rpm). This procedure was repeated and the final pellet resuspended in HEPES-NaOH containing 0.1 mM EDTA and homogenized using the Polytron. Typically, aliquots of 2 ml membrane portions were stored at −80° C. With each new membrane batch the dissociation constant (Kd) was determined via a saturation curve. […] Nonspecific binding was defined as the amount of ^3[H]—(S)-4-[(ethyl-phenyl-amino)-methyl]-4,5-dihydro-oxazol-2-ylamine bound in the presence of 10 M unlabeled ligand. All compounds were tested at a broad range of concentrations (10 pM to 10 μM) in duplicates. […] The 96 deep well plates were incubated for 1 hr at 4° C. Incubations were terminated by rapid filtration through Unifilter-96 plates (Packard Instrument Company) and glass filters GF/C (Perkin Elmer) presoaked for 1 hr in polyethylenimine (0.3%) and washed 3 times with 1 ml of cold binding buffer. After addition of 45 μl of Microscint 40 (PerkinElmer) the Unifilter-96 plate was sealed and after 1 hr the radioactivity counted using a TopCount Microplate Scintillation Counter (Packard Instrument Company).

Sequence of rat TAAR1 (Q923Y9 whole entry): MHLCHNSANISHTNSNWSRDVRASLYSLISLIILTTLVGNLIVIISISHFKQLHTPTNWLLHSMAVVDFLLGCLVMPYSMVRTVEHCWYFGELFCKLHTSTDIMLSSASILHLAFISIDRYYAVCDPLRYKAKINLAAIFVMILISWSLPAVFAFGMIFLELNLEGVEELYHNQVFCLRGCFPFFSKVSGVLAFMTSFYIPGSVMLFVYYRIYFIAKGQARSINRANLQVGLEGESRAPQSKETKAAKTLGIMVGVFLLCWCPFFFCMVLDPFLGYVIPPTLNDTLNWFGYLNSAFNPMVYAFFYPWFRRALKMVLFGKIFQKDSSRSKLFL

For orientation: Ki means the dissociation constant of the complex between target and ligand, obtained from inhibition or displacement. On to `O=C(Nc1ccc(SC2CNC2)cc1)Nc1cccc(Cl)c1` [Example 112, 1-[4-(azetidin-3-ylsulfanyl)phenyl]-3-(3-chlorophenyl)urea], for which the figures for the inhibitory constant (Ki) in assay [1] and in assay [2] were 0.0111 µM and 11.1 nM, respectively. For the molecule `O=C(Nc1ccc(CC2(F)CNC2)cc1)Nc1cccc(Cl)c1` [Example 107, 1-(3-chlorophenyl)-3-[4-[(3-fluoroazetidin-3-yl)methyl]phenyl]urea], the Ki in assay [1] turned out to be 0.0026 µM; in assay [2] it was 2.5 nM. `O=C(Nc1ccc(C=C2CNC2)cc1)c1ccc(Cl)nc1` [Example 65, N-[4-(azetidin-3-ylidenemethyl)phenyl]-6-chloro-pyridine-3-carboxamide]: the figures for the Ki in assay [1] and in assay [2] were 0.023 µM and 2.6 nM, respectively.

The Kd is a measure of binding affinity in units of concentration. In the case of `CCN(C[C@H]1COC(N)=N1)c1ccccc1` [reference compound], the dissociation constant (Kd) in assay [1] (read-out: dissociation constant (Kd) of the radioligand, rat TAAR1 membranes, saturation curve, usual value) was around 2.3 nM; in assay [2] (read-out: dissociation constant (Kd) of the radioligand, mouse TAAR1 membranes, saturation curve, usual value) it was around 0.7 nM. For `COc1ccc(NC(=O)Nc2ccc(CC3(F)CNC3)cc2)cc1` [Example 106, 1-[4-[(3-fluoroazetidin-3-yl)methyl]phenyl]-3-(4-methoxyphenyl)urea], the Ki in assay [1] amounted to 0.0239 µM; in assay [2], 1.9 nM. As for `O=C(Nc1ccc(OC2CNC2)cc1)c1cc(C2CC2)n[nH]1` [Example 10, N-(4-(azetidin-3-yloxy)phenyl)-3-cyclopropyl-1H-pyrazole-5-carboxamide], the Ki in assay [1] stood at 0.0887 µM; in assay [2] it was 414 nM.

In the case of `CN(c1ccc(NC(=O)c2ccnc(C(F)(F)F)c2)cc1)C1CNC1` [Example 2, N-[4-[azetidin-3-yl(methyl)amino]phenyl]-2-(trifluoromethyl)pyridine-4-carboxamide], the inhibitory constant (Ki) in assay [1] was determined as 0.211 µM; in assay [2] it was 27.2 nM. With `CC(C)c1cc(C(=O)Nc2ccc(OC3CNC3)cc2)[nH]n1` [Example 12, N-(4-(azetidin-3-yloxy)phenyl)-3-isopropyl-1H-pyrazole-5-carboxamide], the figures for the inhibitory constant (Ki) in assay [1] and in assay [2] were 0.0927 µM and 137 nM, respectively. With `CO[C@@H]1CN[C@@H]1Cc1ccccc1` [Example 100, (2R,3R)-2-benzyl-3-methoxyazetidine], the results for the inhibition constant Ki in assay [1] and in assay [2] were 0.151 µM and 317 nM, respectively. Regarding `CCc1n[nH]c(C(=O)Nc2cc(F)c(C=C3CNC3)c(F)c2)c1C` [Example 83, N-(4-(azetidin-3-ylidenemethyl)-3,5-difluorophenyl)-3-ethyl-4-methyl-1H-pyrazole-5-carboxamide], the inhibitory constant (Ki) in assay [1] was 0.0009 µM; in assay [2] it was 16.7 nM. `COc1ccc(C[C@@H]2NC[C@@H]2F)cc1` [Example 96, (2S,3S)-3-fluoro-2-(4-methoxybenzyl)azetidine] yielded a Ki in assay [2] of 2760 nM. For the molecule `O=C(Nc1ccc(OC2CNC2)cc1)c1cnc(C(F)(F)F)nc1` [Example 6, N-(4-(azetidin-3-yloxy)phenyl)-2-(trifluoromethyl)pyrimidine-5-carboxamide], in assay [2], affinity was put at a Ki of 19.5 nM.

In assay [2], `O=C(Nc1ccc(OC2CNC2)cc1)c1ccnc(C(F)(F)F)c1` [Example 5, N-(4-(azetidin-3-yloxy)phenyl)-2-(trifluoromethyl)isonicotinamide] yielded an inhibition constant Ki of 12.3 nM.

For `COc1cc(C(=O)Nc2ccc(OC3CNC3)cc2)cc(C#N)n1` [Example 7, N-(4-(azetidin-3-yloxy)phenyl)-2-cyano-6-methoxyisonicotinamide], the inhibition constant (Ki) in assay [2] came out at 5.6 nM. In the case of `COc1ccc(C[C@H]2NC[C@H]2F)cc1` [Example 98, (2R,3R)-3-fluoro-2-(4-methoxybenzyl)azetidine], the inhibitory constant (Ki) in assay [2] was found to be 200 nM. As for `COc1ccc(C[C@@H]2NC[C@H]2F)cc1` [Example 97, (2S,3R)-3-fluoro-2-(4-methoxybenzyl)azetidine], the Ki in assay [2] is 1630 nM.

Take `COc1ccc(C[C@H]2NC[C@@H]2F)cc1` [Example 99, (2R,3S)-3-fluoro-2-(4-methoxybenzyl)azetidine]: the Ki in assay [2] came to 200 nM. `O=C(Nc1ccc(OC2CNC2)c(F)c1)c1cnc(C2CC2)nc1` [Example 27, N-[4-(azetidin-3-yloxy)-3-fluoro-phenyl]-2-cyclopropyl-pyrimidine-5-carboxamide] returned a Ki in assay [2] of 15.5 nM.
